Experimental data as given in patent publication US6355799B1, “Substituted benzene compounds, process for their preparation, and herbicidal and defoliant compositions containing them” (ISK Americas Incorporated, priority 1997, dated 2002).

How the values were obtained:
Assay type in all cases: in vivo
[1] = test system: barnyardgrass (Echinochloa crus-galli, ECHCG); experiment: Post-emerge test, greenhouse herbicide activity screening; settings: Echinochloa crus-galli, post-emergence, 336 h, read-out: Post-emerge Herbicidal Activity ECHCG; for pest or weed control at 63 g/ha: 63 g ai/ha; for pest or weed control at 250 g/ha: 250 g ai/ha
Method in brief: (§1)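 Each test used a mechanized track sprayer delivering 187 l/ha of acetone solution at 15–1000 g ai/ha. Post-emerge foliage at 2–3 leaves was treated with added 0.25% v/v non-ionic surfactant and bottom-watered only. Injury was assessed on day 14, where 100 means total kill.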

[2] = test system: green foxtail (Setaria viridis, SETVI); experiment: as above; settings: Setaria viridis, post-emergence, 336 h, read-out: Post-emerge Herbicidal Activity SETVI; for pest or weed control at 63 g/ha: 63 g ai/ha; for pest or weed control at 250 g/ha: 250 g ai/ha
Method in brief: as §1

[3] = test system: ivyleaf morningglory (Ipomoea hederacea, IPOHE); experiment: as above; settings: Ipomoea, post-emergence, 336 h, read-out: Post-emerge Herbicidal Activity IPOHE; for pest or weed control at 63 g/ha: 63 g ai/ha; for pest or weed control at 250 g/ha: 250 g ai/ha
Method in brief: as §1

[4] = test system: lambsquarters (Chenopodium album, CHEAL); experiment: as above; settings: Chenopodium album, post-emergence, 336 h, read-out: Post-emerge Herbicidal Activity CHEAL; for pest or weed control at 63 g/ha: 63 g ai/ha; for pest or weed control at 250 g/ha: 250 g ai/ha
Method in brief: as §1

[5] = test system: velvetleaf (Abutilon theophrasti, ABUTH); experiment: as above; settings: Abutilon theophrasti, post-emergence, 336 h, read-out: Post-emerge Herbicidal Activity ABUTH; for pest or weed control at 63 g/ha: 63 g ai/ha; for pest or weed control at 250 g/ha: 250 g ai/ha
Method in brief: as §1

[6] = test system: johnsongrass (Sorghum halepense, SORHA); experiment: as above; settings: Sorghum halepense, post-emergence, 336 h, read-out: Post-emerge Herbicidal Activity SORHA; for pest or weed control at 63 g/ha: 63 g ai/ha; for pest or weed control at 250 g/ha: 250 g ai/ha
Method in brief: as §1

[7] = test system: sicklepod (Cassia obtusifolia, CASOB); experiment: Pre-emerge test, greenhouse herbicide activity screening; settings: pre-emerge; for Pre-emerge Herbicidal Activity CASOB (phytotoxicity rating, scale 0-100): rated 14 days after application, 0 = no damage, 100 = complete death
Method in brief: (§2)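 Herbicidal damage is scored 0 (none) to 100 (complete plant death) two weeks after a simulated field spray. Rates span 15–1000 g ai/ha, delivered in acetone at 187 l/ha. For post-emergence treatments, plants have 2–3 leaves and the spray carries 0.25% v/v non-ionic surfactant.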

[8] = test system: barnyardgrass (Echinochloa crus-galli, ECHCG); experiment: as above; settings: pre-emerge; for Pre-emerge Herbicidal Activity ECHCG (phytotoxicity rating, scale 0-100): rated 14 days after application, 0 = no damage, 100 = complete death
Method in brief: as §2

[9] = test system: green foxtail (Setaria viridis, SETVI); experiment: as above; settings: pre-emerge; for Pre-emerge Herbicidal Activity SETVI (phytotoxicity rating, scale 0-100): rated 14 days after application, 0 = no damage, 100 = complete death
Method in brief: as §2

[10] = test system: ivyleaf morningglory (Ipomoea hederacea, IPOHE); experiment: as above; settings: pre-emerge; for Pre-emerge Herbicidal Activity IPOHE (phytotoxicity rating, scale 0-100): rated 14 days after application, 0 = no damage, 100 = complete death
Method in brief: as §2

[11] = test system: lambsquarters (Chenopodium album, CHEAL); experiment: as above; settings: pre-emerge; for Pre-emerge Herbicidal Activity CHEAL (phytotoxicity rating, scale 0-100): rated 14 days after application, 0 = no damage, 100 = complete death
Method in brief: as §2

[12] = test system: velvetleaf (Abutilon theophrasti, ABUTH); experiment: as above; settings: pre-emerge; for Pre-emerge Herbicidal Activity ABUTH (phytotoxicity rating, scale 0-100): rated 14 days after application, 0 = no damage, 100 = complete death
Method in brief: as §2

[13] = test system: johnsongrass (Sorghum halepense, SORHA); experiment: as above; settings: pre-emerge; for Pre-emerge Herbicidal Activity SORHA (phytotoxicity rating, scale 0-100): rated 14 days after application, 0 = no damage, 100 = complete death
Method in brief: as §2

[14] = test system: large crabgrass (Digitaria sanguinalis, DIGSA); experiment: as above; settings: pre-emerge; for Pre-emerge Herbicidal Activity DIGSA (phytotoxicity rating, scale 0-100): rated 14 days after application, 0 = no damage, 100 = complete death
Method in brief: as §2

[15] = phytotoxicity rating 0-100 (0 no damage, 100 complete death), 14 days after application
[16] = post-emerge, phytotoxicity rating 0-100 at 14 days after application

SMILES: COc1c(Cl)cc(F)c(-n2c(=O)cc(C(F)(F)F)n(C)c2=O)c1N(C(C)=O)C(C)=O [Compound 2-2, 3-(4-chloro-2-diacetylamino-6-fluoro-3-methoxyphenyl)-1-methyl-6-trifluoromethyl-2,4(1H, 3H)-pyrimidinedione]
- pest or weed control at 63 g/ha [1, 15]: 0%
- pest or weed control at 250 g/ha [1, 15]: 40%
- pest or weed control at 63 g/ha [2, 15]: 0%
- pest or weed control at 250 g/ha [2, 15]: 30%
- pest or weed control at 63 g/ha [3, 15]: 95%
- pest or weed control at 250 g/ha [3, 15]: 100%
- pest or weed control at 63 g/ha [4, 15]: 60%
- pest or weed control at 250 g/ha [4, 15]: 100%
- pest or weed control at 63 g/ha [5, 15]: 95%
- pest or weed control at 250 g/ha [5, 15]: 100%
- pest or weed control at 63 g/ha [6, 15]: 0%
- pest or weed control at 250 g/ha [6, 15]: 50%
- Pre-emerge Herbicidal Activity CASOB (phytotoxicity rating, scale 0-100) ([7]; 63 g ai/ha): 60
- Pre-emerge Herbicidal Activity CASOB (phytotoxicity rating, scale 0-100) ([7]; 250 g ai/ha): 90
- Pre-emerge Herbicidal Activity ECHCG (phytotoxicity rating, scale 0-100) ([8]; 63 g ai/ha): 30
- Pre-emerge Herbicidal Activity ECHCG (phytotoxicity rating, scale 0-100) ([8]; 250 g ai/ha): 90
- Pre-emerge Herbicidal Activity SETVI (phytotoxicity rating, scale 0-100) ([9]; 63 g ai/ha): 90
- Pre-emerge Herbicidal Activity SETVI (phytotoxicity rating, scale 0-100) ([9]; 250 g ai/ha): 100
- Pre-emerge Herbicidal Activity IPOHE (phytotoxicity rating, scale 0-100) ([10]; 63 g ai/ha): 90
- Pre-emerge Herbicidal Activity IPOHE (phytotoxicity rating, scale 0-100) ([10]; 250 g ai/ha): 100
- Pre-emerge Herbicidal Activity CHEAL (phytotoxicity rating, scale 0-100) ([11]; 63 g ai/ha): 100
- Pre-emerge Herbicidal Activity CHEAL (phytotoxicity rating, scale 0-100) ([11]; 250 g ai/ha): 100
- Pre-emerge Herbicidal Activity ABUTH (phytotoxicity rating, scale 0-100) ([12]; 63 g ai/ha): 100
- Pre-emerge Herbicidal Activity ABUTH (phytotoxicity rating, scale 0-100) ([12]; 250 g ai/ha): 100
- Pre-emerge Herbicidal Activity SORHA (phytotoxicity rating, scale 0-100) ([13]; 63 g ai/ha): 60
- Pre-emerge Herbicidal Activity SORHA (phytotoxicity rating, scale 0-100) ([13]; 250 g ai/ha): 90
- Pre-emerge Herbicidal Activity DIGSA (phytotoxicity rating, scale 0-100) ([14]; 63 g ai/ha): 90
- Pre-emerge Herbicidal Activity DIGSA (phytotoxicity rating, scale 0-100) ([14]; 250 g ai/ha): 95

SMILES: COc1c(Cl)cc(F)c(-c2nn(C)c(C(F)(F)F)c2Cl)c1N [Compound 7-2, 4-chloro-3-(2-amino-4-chloro-6-fluoro3-metoxyphenyl)-1-methyl-5-trifluoromethyl-1H-pyrazole]
- pest or weed control at 63 g/ha [1, 16]: 30%
- pest or weed control at 250 g/ha [1, 16]: 90%
- pest or weed control at 63 g/ha [2, 16]: 20%
- pest or weed control at 250 g/ha [2, 16]: 50%
- pest or weed control at 63 g/ha [3, 16]: 80%
- pest or weed control at 250 g/ha [3, 16]: 100%
- pest or weed control at 63 g/ha [4, 16]: 95%
- pest or weed control at 250 g/ha [4, 16]: 100%
- pest or weed control at 63 g/ha [5, 16]: 100%
- pest or weed control at 250 g/ha [5, 16]: 100%
- pest or weed control at 63 g/ha [6, 16]: 20%
- pest or weed control at 250 g/ha [6, 16]: 40%
- pest or weed control at 63 g/ha ([7]; Senna obtusifolia, pre-emergence, 336 h, rate 63 g ai/ha, phytotoxicity rating 0-100 at 14 days after application, read-out: Pre-emerge Herbicidal Activity CASOB): 30%
- pest or weed control at 250 g/ha ([7]; Senna obtusifolia, pre-emergence, 336 h, rate 250 g ai/ha, phytotoxicity rating 0-100 at 14 days after application, read-out: Pre-emerge Herbicidal Activity CASOB): 30%
- pest or weed control at 63 g/ha ([8]; Echinochloa crus-galli, pre-emergence, 336 h, rate 63 g ai/ha, phytotoxicity rating 0-100 at 14 days after application, read-out: Pre-emerge Herbicidal Activity ECHCG): 70%
- pest or weed control at 250 g/ha ([8]; Echinochloa crus-galli, pre-emergence, 336 h, rate 250 g ai/ha, phytotoxicity rating 0-100 at 14 days after application, read-out: Pre-emerge Herbicidal Activity ECHCG): 100%
- pest or weed control at 63 g/ha ([9]; Setaria viridis, pre-emergence, 336 h, rate 63 g ai/ha, phytotoxicity rating 0-100 at 14 days after application, read-out: Pre-emerge Herbicidal Activity SETVI): 95%
- pest or weed control at 250 g/ha ([9]; Setaria viridis, pre-emergence, 336 h, rate 250 g ai/ha, phytotoxicity rating 0-100 at 14 days after application, read-out: Pre-emerge Herbicidal Activity SETVI): 100%
- pest or weed control at 63 g/ha ([10]; Ipomoea, pre-emergence, 336 h, rate 63 g ai/ha, phytotoxicity rating 0-100 at 14 days after application, read-out: Pre-emerge Herbicidal Activity IPOHE): 60%
- pest or weed control at 250 g/ha ([10]; Ipomoea, pre-emergence, 336 h, rate 250 g ai/ha, phytotoxicity rating 0-100 at 14 days after application, read-out: Pre-emerge Herbicidal Activity IPOHE): 80%
- pest or weed control at 63 g/ha ([11]; Chenopodium album, pre-emergence, 336 h, rate 63 g ai/ha, phytotoxicity rating 0-100 at 14 days after application, read-out: Pre-emerge Herbicidal Activity CHEAL): 100%
- pest or weed control at 250 g/ha ([11]; Chenopodium album, pre-emergence, 336 h, rate 250 g ai/ha, phytotoxicity rating 0-100 at 14 days after application, read-out: Pre-emerge Herbicidal Activity CHEAL): 100%
- pest or weed control at 63 g/ha ([12]; Abutilon theophrasti, pre-emergence, 336 h, rate 63 g ai/ha, phytotoxicity rating 0-100 at 14 days after application, read-out: Pre-emerge Herbicidal Activity ABUTH): 95%
- pest or weed control at 250 g/ha ([12]; Abutilon theophrasti, pre-emergence, 336 h, rate 250 g ai/ha, phytotoxicity rating 0-100 at 14 days after application, read-out: Pre-emerge Herbicidal Activity ABUTH): 100%
- pest or weed control at 63 g/ha ([13]; Sorghum halepense, pre-emergence, 336 h, rate 63 g ai/ha, phytotoxicity rating 0-100 at 14 days after application, read-out: Pre-emerge Herbicidal Activity SORHA): 95%
- pest or weed control at 250 g/ha ([13]; Sorghum halepense, pre-emergence, 336 h, rate 250 g ai/ha, phytotoxicity rating 0-100 at 14 days after application, read-out: Pre-emerge Herbicidal Activity SORHA): 100%
- pest or weed control at 63 g/ha ([14]; Digitaria sanguinalis, pre-emergence, 336 h, rate 63 g ai/ha, phytotoxicity rating 0-100 at 14 days after application, read-out: Pre-emerge Herbicidal Activity DIGSA): 100%
- pest or weed control at 250 g/ha ([14]; Digitaria sanguinalis, pre-emergence, 336 h, rate 250 g ai/ha, phytotoxicity rating 0-100 at 14 days after application, read-out: Pre-emerge Herbicidal Activity DIGSA): 100%
